In patent publication US10273228B2, “Hepatitis B viral assembly effectors” (Indiana University Research and Technology Corporation, priority 2015, dated 2019):

Legend:
[1] = test system: HBV viral load, AD38 cells; test: Activity of test compounds on viral production from AD38 cells (viral load by quantitative PCR of the core sequence in supernatant); format: cell-based, Hepatitis B virus; settings: 10 μM compound, 6 days at 37° C., vs DMSO control wells, Table 9; for activity at 10 µM: Hepatitis B virus, 144 h, read-out: AD38 Viral Load (CpAM/DMSO %) at 10 μM
In short: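 Cells seeded at 50,000/well on collagen-coated plates and exposed for 6 days at 37 °C to compound at 1, 3 or 10 μM final (1.0% DMSO). Supernatant viral DNA measured by TaqMan qPCR of the core sequence against known standards, compared with DMSO control wells.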

AD38 cells = test: AD38 viability normalized to DMSO control; format: cell-based; settings: 10 μM compound, vs DMSO control; Table 9
Protocol: AD38 cells were then re-suspended with 10 mL of treatment medium and counted. Wells of a collagen coated 96-well NUNC microtiter plate were seeded at 50,000/well in 180 μL of treatment medium, and 20 μL of either 10% DMSO (Control) or a 10× solution of test compound in 10% DMSO in treatment media was added for a final compound concentration 1, 3, or 10 μM (1.0% final [DMSO]) and plates were incubated for 6 days at 37° C.

Row | SMILES | AD38 Viral Load (CpAM/DMSO %) at 10 μM [1] | AD38 Viability Normalized Result (CPAM/DMSO %) at 10 μM (AD38 cells) | activity at 10 µM [1]
1 | COC(=O)Cc1ccc(S(=O)(=O)N2CCN(c3nc(Nc4ccc(F)cc4)cc(C(F)(F)F)n3)CC2)cc1 [Compound 1408, methyl 2-(4-((4-(4-((4-fluorophenyl)amino)-6-(trifluoromethyl)pyrimidin-2-yl)piperazin-1-yl)sulfonyl)phenyl) acetate] | 8% | 107% | –
2 | C[C@@H](Oc1ccc(S(=O)(=O)N2CCN(c3nc(Nc4ccc(F)cc4)cc(C(F)(F)F)n3)CC2)cc1)C(=O)O [Compound 1409, (R)-2-(4-((4-(4-((4-fluorophenyl)amino)-6-(trifluoromethyl)pyrimidin-2-yl)piperazin-1-yl)sulfonyl)phenoxy) propanoic acid] | – | 108% | 59%
3 | C[C@H](Oc1ccc(S(=O)(=O)N2CCN(c3nc(Nc4ccc(F)cc4)cc(C(F)(F)F)n3)CC2)cc1)C(=O)O [Compound 1410, (S)-2-(4-((4-(4-((4-fluorophenyl)amino)-6-(trifluoromethyl)pyrimidin-2-yl)piperazin-1-yl)sulfonyl)phenoxy) propanoic acid] | – | 58% | 14%
4 | Cc1cc(Nc2ccc(F)cc2)nc(N2CCN(S(=O)(=O)c3cccc(CC(=O)O)c3)CC2)n1 [Compound 1411, 2-(3-((4-(4-((4-fluorophenyl)amino)-6-methylpyrimidin-2-yl)piperazin-1-yl)sulfonyl)phenyl) acetic acid] | – | 102% | 117%
5 | COC(=O)Cc1cccc(S(=O)(=O)N2CCN(c3nc(C)cc(Nc4ccc(F)cc4)n3)CC2)c1 [Compound 1412, methyl 2-(3-((4-(4-((4-fluorophenyl)amino)-6-methylpyrimidin-2-yl)piperazin-1-yl)sulfonyl)phenyl) acetate] | – | 109% | 61%
6 | O=S(=O)(c1ccc(OC(F)(F)F)cc1)N1CCN(c2nc(Nc3ccccn3)cc(C(F)(F)F)n2)CC1 [Compound 1415] | – | 101% | 120%
7 | O=S(=O)(c1ccc(OC(F)(F)F)cc1)N1CCN(c2nc(Nc3nccs3)cc(C(F)(F)F)n2)CC1 [Compound 1418, N-(2-(4-((4-(trifluoromethoxy)phenyl)sulfonyl)piperazin-1-yl)-6-(trifluoromethyl)pyrimidin-4-yl) thiazol-2-amine] | – | 100% | 120%
8 | O=S(=O)(c1ccc(OC(F)(F)F)cc1)N1CCCN(c2nc(Nc3ccc(F)cc3)cc(C(F)(F)F)n2)CC1 [Compound 1419] | – | 93% | 11%
